Measurements: article PMC2765805 (Journal of medicinal chemistry, 2009)
Where two headings read alike, the source gives them in different places.

Experiments:
[1] = target: T1, human A3 adenosine receptor (Homo sapiens, UniProt P0DMS8); test: biochemical; design: species or system CHO; settings: read-out: % inhibition
T1 sequence (P0DMS8 1-318): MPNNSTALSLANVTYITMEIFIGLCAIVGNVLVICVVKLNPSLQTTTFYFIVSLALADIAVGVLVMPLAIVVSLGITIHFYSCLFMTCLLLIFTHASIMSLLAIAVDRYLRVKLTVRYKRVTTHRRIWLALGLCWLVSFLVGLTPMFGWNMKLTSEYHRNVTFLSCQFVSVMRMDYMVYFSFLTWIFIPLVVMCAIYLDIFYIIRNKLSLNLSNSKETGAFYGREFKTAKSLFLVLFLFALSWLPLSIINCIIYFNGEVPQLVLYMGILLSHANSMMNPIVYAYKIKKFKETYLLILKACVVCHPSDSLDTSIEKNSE

[2] = target: T1, human A3 adenosine receptor; test: biochemical; design: species or system CHO; settings: read-out: % inhibition; remark: listed apart in the source

inhibition at 10 µM [1]: 40.5 ± 13.4%
inhibition at 10 µM [2]: 40.5 ± 13.4%
Structure (SMILES): Clc1ccc(Nc2nc3ccccc3c3[nH]c(C4CCCCC4)nc23)cc1Cl [compound 3]
